Here are results for two molecules from patent US20220380383A1, “NEUROPROTECTIVE PDI MODULATING SMALL MOLECULES AND METHODS OF USE THEREOF” (THE TRUSTEES OF COLUMBIA UNIVERSITY IN THE CITY OF NEW YORK, priority 2018, published 2022).

What is called EC50 is the concentration needed to bring the measured effect to its halfway point. Usually inhibition stands for the drop in the measured response relative to a control, in per cent.

In brackets after ≈: the same amount, converted by molar mass. Read-outs that look alike come from different tables or passages of the source.

The target in one data set is T1, wild-type PDIa (Homo sapiens, UniProt P07237).
T1 construct: made in house; host or cells: Escherichia coli BL21-Gold (DE3)
T1 sequence (P07237 18-134): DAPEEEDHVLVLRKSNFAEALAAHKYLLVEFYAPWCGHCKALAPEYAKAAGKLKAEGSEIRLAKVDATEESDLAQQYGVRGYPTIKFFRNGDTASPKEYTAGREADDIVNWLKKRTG
Kind of data set: MALDI-TOF mass spectrometry with wild-type PDIa. Type of data set: binding. An excerpt:
As mentioned, we synthesized several fluorine-containing analogs of LOC14 (analogs LC-43 and LC-40). Addition of fluorine was the only modification that was tolerated at the ortho position without a complete loss of activity in cells and in targeting PDI in vitro (Table 9). […] We hypothesized that these compounds might be binding to PDI covalently, and therefore would not show heat evolution by calorimetry. To test this hypothesis, we conducted MALDI-TOF mass-spectrometry experiments with wild-type PDIa and LC-43. […] This confirmed that LC-43 did indeed bind to PDIa, and that this binding was […]. The lack of binding by ITC might be again caused because LC-43 interaction with PDI is entropy-driven with small enthalpic changes. […] Additionally, we evaluated LC-43 using a genetically encoded redox reporter transfected into neurons. […] In contrast, treatment with the non-selective reducing agent dithiothreitol (DTT) produces an immediate and dramatic reduction in the roGFP2 fluorescence ratio that leads rapidly to cell degeneration and death (FIG. 16D). […] This single fluorine atom substitution in LOC14 structure seems to be an improvement in the design of compounds with more favorable drug properties.

A further data set has as its target T2, 15N-labeled PDIa (Homo sapiens, UniProt P07237).
T2 construct: His6 (N, cleaved yes); made in house; host or cells: Escherichia coli BL21-Gold (DE3), M9 minimal medium with 15NH4Cl
Nature of the data set: 1H-15N HSQC NMR of PDIa. Type of data set: binding. How it is done:
The ^1H-^15N HSQC spectra were performed on Bruker Avance III 500 Ascend (500 MHz) spectrometers at 300 K. The uniformly ^15N-labeled PDIa was dissolved at 50 μM or 100 μM in 90% H2O/10% D20 (v/v), pH 5.1. The ^1H carrier frequency was positioned at the water resonance. The ^15N carrier frequency was positioned at 115 ppm. The spectral width in the ^1H dimension was 7500 Hz and the width in ω1 (^15N) dimension was 1824.6 Hz. Suppression of water signal was accomplished using the WATERGATE sequence. Heteronuclear decoupling was accomplished using GARP decoupling scheme.

The nature of data set [1]: Solubility (stock solvent).
The test system of the next data set is PC12 mHTTQ103 cells. Kind of data set: Rescue of PC12 cells from mHTTQ103-induced cell death. In kind it is cell-based, rat. As to conditions: for EC50: Rattus norvegicus, PC-12.
A further data set concerns the target T3, INSR (Homo sapiens, UniProt P06213).
T3 construct: CEREP (CRO panel)
Kind of data set: Safety47 panel kinase INSR. In kind it is biochemical. The following applies: Inhibitor mode; 3 μM. From the text:
(§1) LOC14 was also submitted for testing in CEREP's Safety47 panel. CEREP is a CRO specializing in preclinical research, discovery and development of new pharmaceutical drugs.

Another data set has as its target T4, CAV1.2 (Homo sapiens, UniProt Q13936).
T4 construct: CEREP (CRO panel)
Nature of the data set: Safety47 panel ion channel CAV1.2. Type of data set: cell-based. As to conditions: Blocker mode; 3 μM.
From the text: as §1

The target of the next data set is T5, COX2 (Homo sapiens, UniProt P35354).
T5 construct: CEREP (CRO panel)
Kind of data set: Safety47 panel non-kinase enzyme COX2. Type of data set: biochemical. The following applies: Inhibitor mode; 3 μM.
From the text: as §1

The next data set has as its system 47 human targets. Nature of the data set: CEREP Safety47 panel (summary). As to conditions: 3 μM.
From the text: as §1

The next data set concerns the target Muscarinic M3 (Homo sapiens, UniProt P20309). Kind of data set: Off-target panel, Muscarinic M3. Type of data set: binding. The following applies: Conc. 3 μM.
Another data set deals with Muscarinic M2 (Homo sapiens, UniProt P08172). Nature of the data set: Off-target panel, Muscarinic M2. In kind it is binding. As to conditions: Conc. 3 μM.
The next data set deals with T6, AR (Homo sapiens, UniProt P10275).
T6 construct: CEREP (CRO panel)
T6 sequence (P10275 whole entry): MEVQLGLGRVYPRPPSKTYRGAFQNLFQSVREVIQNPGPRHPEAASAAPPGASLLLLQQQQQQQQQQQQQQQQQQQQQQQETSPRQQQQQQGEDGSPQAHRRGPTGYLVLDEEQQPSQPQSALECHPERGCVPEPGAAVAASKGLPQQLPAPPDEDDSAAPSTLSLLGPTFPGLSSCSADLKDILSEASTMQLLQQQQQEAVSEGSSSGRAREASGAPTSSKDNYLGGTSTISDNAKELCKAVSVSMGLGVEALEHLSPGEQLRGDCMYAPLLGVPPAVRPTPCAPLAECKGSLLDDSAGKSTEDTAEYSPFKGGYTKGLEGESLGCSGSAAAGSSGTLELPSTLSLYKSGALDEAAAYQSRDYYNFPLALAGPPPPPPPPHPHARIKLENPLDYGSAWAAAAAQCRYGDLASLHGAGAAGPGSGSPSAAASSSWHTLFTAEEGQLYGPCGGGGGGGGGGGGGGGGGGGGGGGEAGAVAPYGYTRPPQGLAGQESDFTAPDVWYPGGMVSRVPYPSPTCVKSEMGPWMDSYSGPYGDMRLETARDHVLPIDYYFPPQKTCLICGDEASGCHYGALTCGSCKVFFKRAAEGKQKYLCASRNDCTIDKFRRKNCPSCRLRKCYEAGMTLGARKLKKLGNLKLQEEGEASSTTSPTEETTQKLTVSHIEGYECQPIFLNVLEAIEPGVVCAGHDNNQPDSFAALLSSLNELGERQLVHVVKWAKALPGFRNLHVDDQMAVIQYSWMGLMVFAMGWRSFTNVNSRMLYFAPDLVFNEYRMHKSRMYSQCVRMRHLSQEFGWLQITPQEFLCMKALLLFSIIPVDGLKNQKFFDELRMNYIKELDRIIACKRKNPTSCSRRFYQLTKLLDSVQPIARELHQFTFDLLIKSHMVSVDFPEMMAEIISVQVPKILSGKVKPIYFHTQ
Kind of data set: Safety47 panel nuclear hormone receptor AR. Type of data set: cell-based. The following applies: 3 μM.
From the text: as §1

A further data set concerns the target T7, NAV1.5 (Homo sapiens, UniProt Q14524).
T7 construct: CEREP (CRO panel)
Nature of the data set: Safety47 panel ion channel NAV1.5. As to conditions: Blocker mode; 3 μM. In kind it is cell-based.
From the text: as §1

Another data set concerns the target T8, PDE4D2 (Homo sapiens, UniProt Q08499).
T8 construct: CEREP (CRO panel)
Nature of the data set: Safety47 panel non-kinase enzyme PDE4D2. In kind it is biochemical. The following applies: Inhibitor mode; 3 μM.
From the text: as §1

The target in a further data set is Histamine H1 (Homo sapiens, UniProt P35367). Kind of data set: Off-target panel, Histamine H1. Type of data set: binding. The following applies: Conc. 3 μM.
In a further data set the target is Adenosine A1 (Homo sapiens, UniProt P30542). Kind of data set: Off-target panel, Adenosine A1. Type of data set: binding. The following applies: Conc. 3 μM.
A further data set concerns the target Adrenergic β2 (Homo sapiens, UniProt P07550). Kind of data set: Off-target panel, Adrenergic β2. Type of data set: binding. As to conditions: Conc. 3 μM.
The next data set deals with parental ST14A cells. Kind of data set: Rescue of parental ST14A cells (39° C., serum starved, CellTiter-Glo). Type of data set: cell-based, rat. The following applies: 48 hours. From the text:
(§2) Having elucidated the molecular mechanism of LOC14's binding to PDI, we next tested whether PDI modulation with LOC14 would be effective in neurodegenerative disease models. First, we evaluated LOC14's neuroprotection in rat neuron-like PC12 cells stably transfected with an inducible plasmid for truncated mutant huntingtin protein (mHTT^Q103). […] We next evaluated the activity of LOC14 in cells that more closely represent the medium-size spiny neurons affected in Huntington Disease patients. We used rat embryonic day 14 striatal neuronal cells (ST14A) immortalized by transduction of temperature-sensitive SV40 large T antigen (Cattaneo and Conti, 1998; Ehrlich et al. 2001; Rigamonti et al. 2000). Under serum deprivation and at 39° C., where large T antigen is degraded, ST14A cells undergo cell death within 48-72 hours. This death was rescued by treatment with LOC14 (FIG. 13B).

The conditions of data set [2]: cited from earlier work.
The next data set concerns the target T9, nAChR(a4/b2) (Homo sapiens, UniProt P17787+P43681).
T9 construct: CEREP (CRO panel)
Nature of the data set: Safety47 panel ion channel nAChR(a4/b2). In kind it is cell-based. As to conditions: 3 μM.
From the text: as §1

The next data set addresses T10, KvLQT1/minK (Homo sapiens, UniProt P51787).
T10 construct: CEREP (CRO panel)
Nature of the data set: Safety47 panel ion channel KvLQT1/minK. Type of data set: cell-based. The following applies: 3 μM.
From the text: as §1

The next data set relates to ST14A mHTTQ120 cells. Kind of data set: Rescue of ST14A mHTTQ120 cells (39° C., serum starved, CellTiter-Glo). Type of data set: cell-based, rat. As to conditions: 48 hours.
From the text: as §2
(In general: In ATP-based viability assays light output follows the ATP content of the culture.)

The target in the next data set is T11, MAOA (Homo sapiens, UniProt P21397).
T11 construct: CEREP (CRO panel)
T11 sequence (P21397 whole entry): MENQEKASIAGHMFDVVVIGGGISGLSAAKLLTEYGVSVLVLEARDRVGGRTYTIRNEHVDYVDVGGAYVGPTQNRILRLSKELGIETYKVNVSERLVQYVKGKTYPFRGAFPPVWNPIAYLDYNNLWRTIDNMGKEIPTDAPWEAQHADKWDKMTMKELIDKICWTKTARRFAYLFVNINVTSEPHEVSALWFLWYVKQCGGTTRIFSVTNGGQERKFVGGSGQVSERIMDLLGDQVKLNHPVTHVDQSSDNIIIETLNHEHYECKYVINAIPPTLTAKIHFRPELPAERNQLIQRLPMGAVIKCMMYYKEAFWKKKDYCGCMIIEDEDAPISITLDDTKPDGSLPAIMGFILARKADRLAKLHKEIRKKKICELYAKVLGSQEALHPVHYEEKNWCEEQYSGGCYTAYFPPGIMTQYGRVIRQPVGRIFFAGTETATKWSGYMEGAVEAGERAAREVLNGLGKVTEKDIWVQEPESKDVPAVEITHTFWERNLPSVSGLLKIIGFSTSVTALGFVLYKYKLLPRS
Kind of data set: Safety47 panel non-kinase enzyme MAOA. In kind it is biochemical. As to conditions: Inhibitor mode; 3 μM.
From the text: as §1

The mark [3] stands for this setting: Tables 5-13, solvent not given (DMSO in Table 1).
The mark [4] stands for this setting: Tables 5-13, PC12 cells, read-out: EC50.
Setting [5] is: rescue from mHTTQ103 induced cell death.

T9 sequence (P43681 29-627 limits assumed): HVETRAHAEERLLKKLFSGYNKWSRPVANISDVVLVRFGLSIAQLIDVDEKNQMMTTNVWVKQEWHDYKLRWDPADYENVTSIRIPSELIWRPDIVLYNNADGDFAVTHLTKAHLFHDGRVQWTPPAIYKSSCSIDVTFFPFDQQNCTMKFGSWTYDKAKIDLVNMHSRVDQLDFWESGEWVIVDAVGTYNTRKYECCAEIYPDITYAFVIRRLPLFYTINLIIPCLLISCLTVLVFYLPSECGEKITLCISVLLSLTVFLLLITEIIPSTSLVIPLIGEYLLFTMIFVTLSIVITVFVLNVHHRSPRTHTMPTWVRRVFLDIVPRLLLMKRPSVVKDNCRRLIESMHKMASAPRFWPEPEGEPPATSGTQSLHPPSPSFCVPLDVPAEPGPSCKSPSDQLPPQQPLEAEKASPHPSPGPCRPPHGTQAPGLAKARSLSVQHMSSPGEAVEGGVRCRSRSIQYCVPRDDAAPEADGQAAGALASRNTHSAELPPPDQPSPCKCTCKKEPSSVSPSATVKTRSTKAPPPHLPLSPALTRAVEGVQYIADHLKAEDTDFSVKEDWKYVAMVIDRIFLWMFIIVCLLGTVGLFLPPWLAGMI
T9 sequence (P17787 26-502): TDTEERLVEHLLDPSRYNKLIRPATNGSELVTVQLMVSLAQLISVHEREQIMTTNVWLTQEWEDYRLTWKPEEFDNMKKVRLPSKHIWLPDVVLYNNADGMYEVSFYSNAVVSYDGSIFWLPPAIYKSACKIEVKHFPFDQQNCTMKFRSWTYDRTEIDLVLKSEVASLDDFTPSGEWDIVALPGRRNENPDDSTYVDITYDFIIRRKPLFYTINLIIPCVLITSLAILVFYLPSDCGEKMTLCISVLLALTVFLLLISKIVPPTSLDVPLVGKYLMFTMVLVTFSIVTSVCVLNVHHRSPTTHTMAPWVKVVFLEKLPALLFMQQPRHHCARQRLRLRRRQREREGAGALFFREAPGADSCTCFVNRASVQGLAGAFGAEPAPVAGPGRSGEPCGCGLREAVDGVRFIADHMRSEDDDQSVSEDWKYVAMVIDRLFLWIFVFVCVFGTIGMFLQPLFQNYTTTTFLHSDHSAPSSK
T7 sequence (Q14524 whole entry): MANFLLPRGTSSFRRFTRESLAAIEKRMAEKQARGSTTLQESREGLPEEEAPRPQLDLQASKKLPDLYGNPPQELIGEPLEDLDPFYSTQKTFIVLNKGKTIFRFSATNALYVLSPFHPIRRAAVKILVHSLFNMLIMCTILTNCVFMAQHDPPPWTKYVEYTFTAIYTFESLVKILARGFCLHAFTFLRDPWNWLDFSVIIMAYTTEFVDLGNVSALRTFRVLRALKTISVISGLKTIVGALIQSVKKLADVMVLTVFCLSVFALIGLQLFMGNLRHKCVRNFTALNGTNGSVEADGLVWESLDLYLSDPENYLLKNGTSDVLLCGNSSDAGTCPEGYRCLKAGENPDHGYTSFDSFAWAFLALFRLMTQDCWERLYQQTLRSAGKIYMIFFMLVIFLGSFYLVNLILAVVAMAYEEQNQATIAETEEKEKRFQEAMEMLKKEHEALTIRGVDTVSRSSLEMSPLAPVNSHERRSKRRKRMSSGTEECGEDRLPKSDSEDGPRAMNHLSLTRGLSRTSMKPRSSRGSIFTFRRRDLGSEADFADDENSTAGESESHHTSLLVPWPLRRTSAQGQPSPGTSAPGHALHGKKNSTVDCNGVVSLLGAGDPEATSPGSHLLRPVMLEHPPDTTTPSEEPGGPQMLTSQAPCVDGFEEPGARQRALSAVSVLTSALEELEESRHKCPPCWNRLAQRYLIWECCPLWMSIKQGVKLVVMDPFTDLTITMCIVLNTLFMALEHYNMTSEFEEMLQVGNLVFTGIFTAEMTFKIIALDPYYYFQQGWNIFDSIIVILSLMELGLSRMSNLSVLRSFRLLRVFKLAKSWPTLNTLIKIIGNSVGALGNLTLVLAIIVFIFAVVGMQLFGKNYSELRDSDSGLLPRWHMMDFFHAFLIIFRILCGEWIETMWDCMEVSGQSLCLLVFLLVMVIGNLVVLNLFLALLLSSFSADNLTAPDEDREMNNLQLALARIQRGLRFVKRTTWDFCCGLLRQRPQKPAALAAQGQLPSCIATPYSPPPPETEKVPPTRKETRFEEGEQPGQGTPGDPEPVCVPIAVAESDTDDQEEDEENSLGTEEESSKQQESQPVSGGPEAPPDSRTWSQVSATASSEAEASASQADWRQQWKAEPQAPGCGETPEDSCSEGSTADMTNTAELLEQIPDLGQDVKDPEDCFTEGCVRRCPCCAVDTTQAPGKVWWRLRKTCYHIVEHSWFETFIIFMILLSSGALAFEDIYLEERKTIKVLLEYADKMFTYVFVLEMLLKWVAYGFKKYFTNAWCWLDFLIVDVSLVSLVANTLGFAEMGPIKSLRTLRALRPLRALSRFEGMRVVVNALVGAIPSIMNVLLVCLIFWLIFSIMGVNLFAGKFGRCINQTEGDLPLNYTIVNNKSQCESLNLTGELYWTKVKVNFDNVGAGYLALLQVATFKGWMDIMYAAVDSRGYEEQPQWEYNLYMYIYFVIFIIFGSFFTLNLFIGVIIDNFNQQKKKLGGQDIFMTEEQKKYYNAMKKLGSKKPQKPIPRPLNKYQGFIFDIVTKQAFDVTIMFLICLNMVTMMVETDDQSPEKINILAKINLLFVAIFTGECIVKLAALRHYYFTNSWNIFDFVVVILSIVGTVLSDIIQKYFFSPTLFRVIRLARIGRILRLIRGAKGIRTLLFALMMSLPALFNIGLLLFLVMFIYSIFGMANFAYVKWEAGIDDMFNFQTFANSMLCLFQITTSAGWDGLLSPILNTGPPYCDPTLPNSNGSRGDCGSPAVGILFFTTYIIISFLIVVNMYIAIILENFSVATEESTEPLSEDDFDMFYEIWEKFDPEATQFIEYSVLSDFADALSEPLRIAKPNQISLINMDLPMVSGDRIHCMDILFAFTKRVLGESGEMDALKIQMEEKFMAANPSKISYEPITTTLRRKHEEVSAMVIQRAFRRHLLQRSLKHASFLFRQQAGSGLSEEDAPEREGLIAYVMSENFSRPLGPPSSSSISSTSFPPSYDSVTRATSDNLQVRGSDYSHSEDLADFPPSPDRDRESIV
T2 sequence (P07237 18-134): as the sequence (P07237 18-134) above

Regarding `O=C(C1CC1)N1CCN(Cn2sc3c(F)cccc3c2=O)CC1` [LC-43], the “change in mass of wild-type PDIa (MALDI-TOF)” value on wild-type PDIa is listed as “no change in mass”. Besides, the “chemical shift changes in PDIa (1H-15N HSQC)” value on 15N-labeled PDIa is “same chemical shift changes in the active site as induced by LOC14”. For the same molecule, the Solubility stood at 100 mM in DMSO in [1] and 100 mM (≈ 33.5 mg/mL) in data set [1] (setting [3]). The EC50 in the data set on PC12 mHTTQ103 cells (setting [4]) stood at 7410 nM. Moreover, the “Max Viability (%)” value with PC12 mHTTQ103 cells (Tables 5-13, PC12 cells) is 56%. Further, the “PC12 cells Max % Viability” value with PC12 mHTTQ103 cells (setting [5]) came out at 56.48%.
For the molecule `O=C(C1CC1)N1CCN(Cn2sc3ccccc3c2=O)CC1` [LOC14], the Average at INSR is 22.7; on CAV1.2, 1.2; at COX2, 2.8; on AR (Agonist mode), 0.0; on AR (Antagonist mode) it was 5.4; at NAV1.5, 7.0. Moreover, the Average came to 0.0 at PDE4D2; 10.1 at nAChR(a4/b2) (Blocker mode); 0.0 on nAChR(a4/b2) (Opener mode); 0.0 at KvLQT1/minK (Blocker mode); 9.8 at KvLQT1/minK (Opener mode); 9.9 at MAOA. Besides, the “off-target effects in Safety47 panel” value in the data set on 47 human targets is “no significant off-target effects”. In addition, the inhibition at 3 µM on Muscarinic M3 was -4%; against Muscarinic M2, -3%; against Histamine H1 it was 27%; at Adenosine A1, 8%; at Adrenergic β2, 8%. The EC100 with parental ST14A cells was 24 nM; in the data set with PC12 mHTTQ103 cells (protection from mHTT toxicity, FIG. 13A), 3.1 µM; in the data set with ST14A mHTTQ120 cells, 6 nM. Moreover, the tolerated dose in data set [2] (in mice) was 20 mg/kg. In data set [2] (mouse, in vivo, po), the oral bioavailability entry is “orally bioavailable”. For the same molecule, the blood-brain-barrier penetration entry in data set [2] (mouse, in vivo) is recorded as “blood-brain-barrier penetrant”. In data set [2] (via oral gavage), the “half-life in the brain” value was 2.2 h. For the same molecule, the values for the Solubility in data set [1] and in data set [1] (setting [3]) were 100 mM in DMSO and 100 mM (≈ 31.7 mg/mL), respectively. Also, the EC50 with PC12 mHTTQ103 cells (setting [4]) amounted to 352 nM; in the data set on PC12 mHTTQ103 cells (rescue from mHTTQ103 induced cell death, read-out: PC12 cells EC50), 352 nM. The “Max Viability (%)” value in the data set on PC12 mHTTQ103 cells (Tables 5-13, PC12 cells) came to 66%. Also, in the data set on PC12 mHTTQ103 cells (setting [5]), the “PC12 cells Max % Viability” value came out at 66.25%.
